This experiment has as its system CEM cells HIV-1 protection, formazan growth assay. Put plainly: NCI AIDS Antiviral Assay. The following applies: for IC50: measured here: growth of uninfected CEM cells. The gist of the method: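 Steps: treat uninfected and HIV-1-infected human CEM cells at five drug levels; quantify growth by soluble formazan; retest any compound reaching 50% protection; classify actives from the retest.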

In general, EC50 refers to the concentration giving half of the maximal effect. One may read the IC50 as the concentration at which inhibition is half-maximal. A high value points to a need for much substance.

Calls of active or inactive are those of the source.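 The calls were made as follows: active = compounds giving half or more protection of infected cells from virus-caused growth loss, again on retest; inactive = the rest.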 Where a SMILES comes first, the peptide text is derived from it. The star is where a group is joined. Boc = CC(C)(C)OC(=O)*

As for `O=C(OCCc1ccccc1)c1cc2cc(O)c(O)cc2cn1`, the EC50 is greater than 8.32 µM and the IC50 was greater than 8.32 µM.

`CON(C)c1nc2ccccc2o1`: the EC50 is greater than 200 µM and the IC50 turned out to be 107 µM.

`CN(C)c1ccc(/C=C(/C(=O)c2ccccc2)c2ccccc2)cc1`: the EC50 is greater than 15.8 µM and the IC50 was greater than 15.8 µM.

Take `CC(C)(C)C(=O)OCOP(=O)(O)OCC1CCC(N2C=CC(N)NC2=O)O1` (stereo not drawn): the EC50 is 0.0468 µM and the IC50 amounted to 16.2 µM.

For the compound `O=C1NC(=O)C(C(=O)C(=O)Nc2ccc(Br)cc2)C(=O)N1`, the EC50 was greater than 191 µM and the IC50 was greater than 191 µM.

In the case of `CC(NC(=O)C(NC(=O)OC(C)(C)C)C(C)C)C(=O)N1CCCC1C(=O)NCC(=O)NC(C(=O)NCC(=O)O)C(C)C` (stereo not drawn) (Boc-VAPGVG-OH; configuration not given here), the EC50 was greater than 200 µM and the IC50 was greater than 200 µM.

Consider `CCOC(=O)c1ccc(Nc2nc3ccc(C(F)(F)F)cc3nc2C(=O)OCC)cc1`, for which the result was inactive.

With `Cc1ccc(C)c(N2C(=O)C(=O)C(c3nc4ccccc4o3)/C(=N\NC(=O)c3ccccc3O)C2=O)c1` (stereo not drawn), the outcome was inactive.

Regarding `CC(=O)OCC1OC(c2c(OC(C)=O)cc(C)c3c(=O)cc(/C(C(C)=O)=C(\C)O)oc23)C(OC(C)=O)C(OC(C)=O)C1OC(C)=O` (stereo not drawn), the EC50 was greater than 200 µM and the IC50 is greater than 200 µM.

Take `CO[C@H]1ON=C(c2c(C)cc(C)cc2C)[C@@H]1C1(c2ccccc2)ON=C(c2c(C)cc(C)cc2C)O1` (stereo partly drawn): the EC50 was greater than 200 µM.

For `CCOC(=O)c1nc2ccc(C(F)(F)F)cc2nc1NCc1ccc(OC)cc1`, the EC50 is greater than 200 µM and the IC50 came out at 38 µM.

Consider `Nc1nc[n+](Cc2ccccc2CCO)c2nc[nH]c12`, for which the EC50 was greater than 37.2 µM and the IC50 is greater than 37.2 µM.

Turning to `COC(=O)C1(C(=O)OC)C/C(C)=C(/C)SCCCS1`, the EC50 was greater than 200 µM and the IC50 was greater than 200 µM.

As for `COC1/C=C/OC2(C)Oc3c(C)c(O)c4c(O)c(cc(OCC(=O)N5CCC(O)(Cc6ccccc6)CC5)c4c3C2=O)NC(=O)/C(C)=C/C=CC(C)C(O)C(C)C(O)C(C)C(OC(C)=O)C1C` (stereo not drawn), the EC50 was greater than 112 µM and the IC50 worked out at 30.9 µM.

With `Cc1nn(C(=O)c2ccncc2)c2c1C(c1ccccc1[N+](=O)[O-])SC(N)=N2` (stereo not drawn), the result was inactive.

On to `CCN(CC)CCN1C(=O)c2cccc3cc(OC)cc(c23)C1=O`, for which the EC50 is greater than 200 µM and the IC50 was determined as 3.47 µM.

Consider `C/C(=N/NC(=O)c1ccncc1)c1ccc(NC(=O)C(=O)Nn2c(=S)[nH]c3ccccc3c2=O)cc1`, for which the EC50 was greater than 51.3 µM and the IC50 is greater than 51.3 µM.

As to `NC(=O)c1nnn(Cc2ccccc2)c1N`, the EC50 was greater than 200 µM and the half-inhibitory concentration (IC50) is greater than 200 µM.

For `O=C1C2CC=CCC2C(=O)N1n1c(Cc2ccc(Cl)cc2)n[nH]c1=O` (stereo not drawn), the EC50 is greater than 200 µM and the IC50 is greater than 200 µM.

On to `CCCCCCCCCCOCCC(=O)O`, for which the EC50 is greater than 200 µM and the IC50 is 89.1 µM.

With `O=C1CC(=O)N(C=C2C(=O)NC(=O)NC2=O)C(=S)N1`, the EC50 was greater than 200 µM and the IC50 is greater than 200 µM.

As to `Cn1ccoc1=Nc1ccc(Cl)c(Cl)c1`, the EC50 was greater than 200 µM and the IC50 is greater than 200 µM.

As to `CCOc1ccc(/C=C(\Cl)c2ccc(OC)c(OC)c2)cc1`, the EC50 is greater than 200 µM and the IC50 came to 191 µM.

As to `CCOC(C)OC1CC(n2cc(C)c(=O)[nH]c2=O)OC1CO` (stereo not drawn), the EC50 is greater than 14.8 µM and the IC50 came out at 13.2 µM.

Turning to `CC(O)c1ccc(C(O)/C(=N\NC(=O)c2ccncc2)c2nc3ccc([N+](=O)[O-])cc3[nH]c2=O)cc1` (stereo not drawn), the EC50 was greater than 74.1 µM and the IC50 stood at 60.3 µM.

Regarding `CC(C)CC1NC(CC(C)C)N2C(CC(C)C)N12` (stereo not drawn), the EC50 is greater than 39.8 µM and the IC50 is greater than 39.8 µM.

In the case of `Cc1ccc(S(=O)(=O)c2ccc(NC(=O)SCCC(=O)O)cc2)cc1`, the result was inactive.

In the case of `O=C1Nc2ccccc2Oc2ccccc21`, the EC50 was 51.3 µM and the IC50 is greater than 200 µM.

Regarding `Cc1ccc(NC(=O)C(=O)CC(=O)C2CCOC2=O)c(C)c1` (stereo not drawn), the result was inactive.

Consider `CN(C)CC1CCCC(CN(C)C)C1=NOC(=O)c1ccccc1` (stereo not drawn), for which the EC50 is greater than 200 µM and the IC50 was found to be 174 µM.

Take `O=C(c1ccccc1)C(SSC(C(=O)c1ccccc1)C(=O)c1ccccc1)C(=O)c1ccccc1`: the EC50 is greater than 200 µM and the IC50 was 17.4 µM.

For `O=C(Nc1cc2c(=O)[nH]c3ccccc3c2oc1=O)c1cnccn1`, the EC50 was greater than 100 µM and the IC50 was greater than 100 µM.

As to `COc1cccc2cc(C(=O)Nc3ccccc3)c(=N)oc12`, the EC50 is greater than 200 µM and the IC50 is greater than 200 µM.

On to `COc1c(OC)c(OC)c2c(=O)cc(-c3ccc4c(c3)OCO4)oc2c1OC`, for which the EC50 was greater than 200 µM and the IC50 was greater than 200 µM.

As for `CC(=O)/C(=C/n1c(=S)[nH]c2ccccc21)C(=O)Nc1ccccc1C`, the EC50 is greater than 200 µM and the IC50 is greater than 200 µM.

`COc1cnnc2c(C)c(-c3ccccc3)nn12`: the EC50 was greater than 200 µM and the IC50 was 46.8 µM.

For `CCCCCCCCCCCCCCCCNc1ccn(C2OC(COP(=O)(O)OC3CC(n4cc(C)c(=O)[nH]c4=O)OC3CO)C(O)C2O)c(=O)n1` (stereo not drawn), the EC50 was greater than 200 µM and the IC50 was found to be 19.1 µM.

As to `CC(C)SC(C)(NC(=O)C1C(C)(C)CCC1(C)C)C(=O)O` (stereo not drawn), the EC50 was greater than 200 µM and the IC50 is greater than 200 µM.

Regarding `O=C(O)C(Cc1ccc(O)cn1)NC(=O)C(F)(F)F` (stereo not drawn), the EC50 is greater than 200 µM and the IC50 was greater than 200 µM.

As for `COc1cc([N+](=O)[O-])c(S(=O)(=O)O)cc1NS(=O)(=O)c1ccc(C)cc1`, the EC50 was greater than 200 µM and the 50% inhibitory concentration (IC50) is greater than 200 µM.

In the case of `CCOC(=O)/C=C1/Nc2cc(F)c(F)cc2NC1=O`, the EC50 was greater than 200 µM and the IC50 was greater than 200 µM.

As for `OCCN(CCO)c1ncnc2c1sc(=S)n2-c1ccccc1`, the EC50 was greater than 724 µM and the IC50 is 282 µM.

Consider `CC(=O)NNC(=S)N/C=C(\C#N)c1nc2ccccc2s1`, for which the EC50 is greater than 200 µM and the IC50 is greater than 200 µM.

As to `Cc1c2c(n(CCc3ccccc3)c1C)N(C)N=C(C#N)S2(=O)=O`, the EC50 was greater than 200 µM and the IC50 was greater than 200 µM.

Take `CCOC(=O)NC(O)C(Cl)(Cl)Cl` (stereo not drawn): the EC50 was greater than 200 µM and the IC50 is greater than 200 µM.

As to `C=CCC1(C(C)C(O)c2cc(OC)c(OC)c(OC)c2)CC(O)C=CC12OCCO2` (stereo not drawn), the EC50 is greater than 200 µM and the IC50 stood at 9.12 µM.

`O=C1Sc2ccccc2C(=O)N2C1CSC2c1ccccc1` (stereo not drawn): the EC50 is greater than 200 µM and the IC50 was greater than 200 µM.

For the compound `c1ccc(C2OC23CCCCC3)cc1` (stereo not drawn), the EC50 was greater than 200 µM and the IC50 is greater than 200 µM.

In the case of `NC(CSSCC(N)=NCC12CC3CC(CC(C3)C1)C2)=NCC12CC3CC(CC(C3)C1)C2`, the EC50 was greater than 200 µM and the IC50 worked out at 30.9 µM.

Turning to `COc1nc(N)c(N(C(C)=O)C(C)=O)c(=O)[nH]1`, the result was inactive.

On to `O=S(=O)(Oc1ccc2ccccc2c1-c1c(OS(=O)(=O)C(F)(F)F)ccc2ccccc12)C(F)(F)F`, for which the result was inactive.

Take `CCOC(=O)/C(=N/Nc1ccc(C)cc1)N1C(=S)C=C(C)NN(C)C1=S`: the EC50 was greater than 200 µM and the IC50 is greater than 200 µM.

As to `CCN1C(=O)C(C)C=C(C)C=C1C` (stereo not drawn), the EC50 is greater than 724 µM and the IC50 was greater than 724 µM.

Take `CCOC(=O)/C=C/SCCNC(=O)OCC`: the EC50 is greater than 204 µM and the IC50 turned out to be 120 µM.

On to `COc1ccc(/C=C2\Cc3ccccc3C2=O)cc1`, for which the EC50 was greater than 20 µM and the IC50 is greater than 20 µM.

For `C#CC(C)(C)Oc1cc(OC)c2c(=O)c3ccccc3n(C)c2c1`, the EC50 was greater than 200 µM and the IC50 worked out at 11 µM.

As for `COc1ccc(CNc2cnc3cc(N)ccc3n2)cc1OC`, the EC50 was greater than 115 µM and the IC50 is greater than 115 µM.

As for `Cc1nn(C)c2c1NC(=O)CS2`, the result was inactive.

As for `O=c1[nH]c2ccc(CC(=S)N3CCOCC3)cc2o1`, the EC50 was greater than 200 µM and the IC50 was greater than 200 µM.

Regarding `CCCCCCCCCCCCCCC(C(=O)O)S(=O)(=O)O` (stereo not drawn), the EC50 is greater than 200 µM and the IC50 stood at 155 µM.

On to `O=C(c1ccccc1)N1C2C3CC(OCc4ccccc4)(OCc4ccccc4)C(O3)C21` (stereo not drawn), for which the EC50 was greater than 17 µM and the IC50 is greater than 17 µM.

As to `CC(=O)Nc1ccc(-c2nnc(SCC(=O)Nc3ccc(Cl)cc3)o2)cc1`, the EC50 is greater than 89.1 µM and the IC50 turned out to be 5.01 µM.

Consider `C=CCOc1ccc(C2c3c([nH][nH]c3=O)CC(O)(OCC)C2C(=O)OCC)cc1OC` (stereo not drawn), for which the EC50 is greater than 200 µM and the IC50 is greater than 200 µM.

In the case of `Fc1ccccc1C1CC(C(c2ccccc2)c2ccccc2)=Nc2ccccc2S1` (stereo not drawn), the EC50 was greater than 6.46 µM and the IC50 is greater than 6.46 µM.

For `Oc1ccc(Cl)cc1-c1[nH]c(=S)nc(-c2ccccc2)c1Cl`, the EC50 was greater than 200 µM and the IC50 was greater than 200 µM.

Consider `CC(=O)Nc1ccc2oc(=O)ccc2c1`, for which the EC50 was greater than 1230 µM and the IC50 stood at 562 µM.

For the compound `FC1=C2C3CCC(C3)C2C1(F)F` (stereo not drawn), the EC50 is greater than 200 µM and the IC50 is greater than 200 µM.

On to `Cn1c(Cl)cn2c3nc4ccccc4nc3c(=O)c(C#N)c12`, for which the outcome was inactive.

As for `Cc1cc(OP2(=O)Nc3ccccc3-c3ccccc3N2)ccc1Cl`, the EC50 is greater than 70.8 µM and the IC50 worked out at 1.26 µM.

For `CNC(=S)N/N=C/c1cccc(C)n1`, the EC50 was greater than 200 µM and the IC50 worked out at 19.5 µM.

Regarding `Cc1c2c(n3c(nc4ccccc43)c1C#N)NCC2`, the EC50 was greater than 200 µM and the IC50 is greater than 200 µM.

Turning to `CCOP(=O)(OCC)/C(C#N)=C/c1ccc(Oc2ccccc2)cc1`, the EC50 was greater than 20.4 µM and the IC50 is greater than 20.4 µM.

As to `CC1(C)OC2OC3C(I)CN(C(=O)OCc4ccccc4)C3C2O1` (stereo not drawn), the EC50 is greater than 200 µM and the IC50 was determined as 110 µM.

Regarding `Nc1ccc([N+](=O)[O-])c(S(=O)(=O)O)c1`, the EC50 was greater than 1150 µM and the IC50 was greater than 1150 µM.
